Measured values reported in the supplement of paper PMC10307832.

Key:
Assay in all cases: relative viability (nuclei count vs DMSO), 5 days (fraction); higher = more cells survive
SK-MES-1 = test system: SK-MES-1
In short: (§1)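 Lung cancer cell lines were pin-tool dosed in 1536-well plates on the day after seeding, with either a lone drug or a fixed anchor-drug dose plus five library-drug doses (not always all listed) in √10 steps. Nuclei were counted on 4× images after 5 days. Relative viability is the ratio of treated-well to vehicle-well nuclei counts, with each value a median of duplicate plates.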

SW 900 = test system: SW 900
In short: as §1

LU99A = test system: LU99A
In short: as §1

ABC-1 = test system: ABC-1
In short: as §1

NCI-H2228 = test system: NCI-H2228
In short: as §1

SK-LU-1 = test system: SK-LU-1
In short: as §1

LXF-289 = test system: LXF-289
In short: as §1

HOP-62 = test system: HOP-62
In short: as §1

NCI-H1944 = test system: NCI-H1944
In short: as §1

NCI-H1993 = test system: NCI-H1993
In short: as §1

A-427 = test system: A-427
In short: as §1

NCI-H596 = test system: NCI-H596
In short: as §1

NCI-H2009 = test system: NCI-H2009
In short: as §1

NCI-H1792 = test system: NCI-H1792
In short: as §1

SW 1573 = test system: SW 1573
In short: as §1

NCI-H1793 = test system: NCI-H1793
In short: as §1

PC-3 [JPC-3] = test system: PC-3 [JPC-3]
In short: as §1

NCI-H2170 = test system: NCI-H2170
In short: as §1

EMC-BAC-2 = test system: EMC-BAC-2
In short: as §1

HARA = test system: HARA
In short: as §1

COR-L23 = test system: COR-L23
In short: as §1

NCI-H3122 = test system: NCI-H3122
In short: as §1

LK-2 = test system: LK-2
In short: as §1

NCI-H727 = test system: NCI-H727
In short: as §1

Q: Which results are given for `Clc1ccc(Nc2nnc(Cc3ccncc3)c3ccccc23)cc1` [Vatalanib] + CCNC(=O)c1noc(-c2cc(C(C)C)c(O)cc2O)c1-c1ccc(CN2CCOCC2)cc1 [Luminespib] (partner 0.01 µM)?
A: relative viability (SK-MES-1; first compound 0.04 µM): 0.745; relative viability (SK-MES-1; first compound 0.1265 µM): 0.845; relative viability (SK-MES-1; first compound 0.4 µM): 1.05; relative viability (SK-MES-1; first compound 1.265 µM): 0.679; relative viability (SK-MES-1; first compound 4 µM): 0.6; relative viability (SW 900; first compound 0.1265 µM): 0.178; relative viability (SW 900; first compound 0.4 µM): 0.224; relative viability (SW 900; first compound 1.265 µM): 0.166; relative viability (SW 900; first compound 4 µM): 0.192; relative viability (LU99A; first compound 0.04 µM): 0.255; relative viability (LU99A; first compound 0.1265 µM): 0.238; relative viability (LU99A; first compound 0.4 µM): 0.264; relative viability (LU99A; first compound 1.265 µM): 0.286; relative viability (LU99A; first compound 4 µM): 0.246; relative viability (ABC-1; first compound 0.04 µM): 0.822; relative viability (ABC-1; first compound 1.265 µM): 0.63; relative viability (ABC-1; first compound 4 µM): 0.507; relative viability (NCI-H2228; first compound 0.04 µM): 0.145; relative viability (NCI-H2228; first compound 0.1265 µM): 0.102; relative viability (NCI-H2228; first compound 0.4 µM): 0.163; relative viability (NCI-H2228; first compound 1.265 µM): 0.115; relative viability (NCI-H2228; first compound 4 µM): 0.157; relative viability (SK-LU-1; first compound 0.04 µM): 0.21; relative viability (SK-LU-1; first compound 0.1265 µM): 0.197; relative viability (SK-LU-1; first compound 0.4 µM): 0.241; relative viability (SK-LU-1; first compound 1.265 µM): 0.218; relative viability (SK-LU-1; first compound 4 µM): 0.232; relative viability (LXF-289; first compound 0.04 µM): 0.703; relative viability (LXF-289; first compound 0.1265 µM): 0.634; relative viability (LXF-289; first compound 0.4 µM): 0.734; relative viability (LXF-289; first compound 1.265 µM): 0.623; relative viability (LXF-289; first compound 4 µM): 0.633; relative viability (HOP-62; first compound 0.04 µM): 0.928; relative viability (HOP-62; first compound 0.1265 µM): 0.925; relative viability (HOP-62; first compound 0.4 µM): 0.895; relative viability (HOP-62; first compound 1.265 µM): 0.883; relative viability (HOP-62; first compound 4 µM): 0.959; relative viability (NCI-H1944; first compound 0.04 µM): 0.796; relative viability (NCI-H1944; first compound 0.1265 µM): 0.687; relative viability (NCI-H1944; first compound 0.4 µM): 0.845; relative viability (NCI-H1944; first compound 1.265 µM): 0.679; relative viability (NCI-H1944; first compound 4 µM): 0.752; relative viability (NCI-H1993; first compound 0.04 µM): 0.955; relative viability (NCI-H1993; first compound 0.1265 µM): 0.958; relative viability (NCI-H1993; first compound 0.4 µM): 0.865; relative viability (NCI-H1993; first compound 1.265 µM): 0.71; relative viability (NCI-H1993; first compound 4 µM): 0.82; relative viability (A-427; first compound 0.04 µM): 0.861; relative viability (A-427; first compound 0.1265 µM): 0.909; relative viability (A-427; first compound 0.4 µM): 1.03; relative viability (A-427; first compound 1.265 µM): 0.927; relative viability (A-427; first compound 4 µM): 0.948; relative viability (NCI-H596; first compound 0.04 µM): 0.955; relative viability (NCI-H596; first compound 0.1265 µM): 0.941; relative viability (NCI-H596; first compound 0.4 µM): 0.953; relative viability (NCI-H596; first compound 1.265 µM): 1.01; relative viability (NCI-H596; first compound 4 µM): 1.19; relative viability (NCI-H2009; first compound 0.04 µM): 1.11; relative viability (NCI-H2009; first compound 0.1265 µM): 0.983; relative viability (NCI-H2009; first compound 0.4 µM): 1.06; relative viability (NCI-H2009; first compound 1.265 µM): 0.962; relative viability (NCI-H2009; first compound 4 µM): 1.04; relative viability (NCI-H1792; first compound 0.04 µM): 0.475; relative viability (NCI-H1792; first compound 0.1265 µM): 0.492; relative viability (NCI-H1792; first compound 0.4 µM): 0.4; relative viability (NCI-H1792; first compound 1.265 µM): 0.564; relative viability (NCI-H1792; first compound 4 µM): 0.387; relative viability (SW 1573; first compound 0.04 µM): 0.425; relative viability (SW 1573; first compound 0.1265 µM): 0.321; relative viability (SW 1573; first compound 0.4 µM): 0.302; relative viability (SW 1573; first compound 1.265 µM): 0.437; relative viability (SW 1573; first compound 4 µM): 0.264; relative viability (NCI-H1793; first compound 0.04 µM): 0.156; relative viability (NCI-H1793; first compound 0.1265 µM): 0.19; relative viability (NCI-H1793; first compound 0.4 µM): 0.192; relative viability (NCI-H1793; first compound 1.265 µM): 0.166; relative viability (NCI-H1793; first compound 4 µM): 0.2; relative viability (PC-3 [JPC-3]; first compound 0.04 µM): 0.697; relative viability (PC-3 [JPC-3]; first compound 0.1265 µM): 0.688; relative viability (PC-3 [JPC-3]; first compound 0.4 µM): 0.7; relative viability (PC-3 [JPC-3]; first compound 1.265 µM): 0.706; relative viability (PC-3 [JPC-3]; first compound 4 µM): 0.723; relative viability (NCI-H2170; first compound 0.04 µM): 0.79; relative viability (NCI-H2170; first compound 0.1265 µM): 0.644; relative viability (NCI-H2170; first compound 0.4 µM): 0.715; relative viability (NCI-H2170; first compound 1.265 µM): 0.641; relative viability (NCI-H2170; first compound 4 µM): 0.692; relative viability (EMC-BAC-2; first compound 0.04 µM): 1.16; relative viability (EMC-BAC-2; first compound 0.1265 µM): 1.13; relative viability (EMC-BAC-2; first compound 0.4 µM): 1.34; relative viability (EMC-BAC-2; first compound 1.265 µM): 1.09; relative viability (EMC-BAC-2; first compound 4 µM): 1.15; relative viability (HARA; first compound 0.04 µM): 0.682; relative viability (HARA; first compound 0.1265 µM): 0.617; relative viability (HARA; first compound 0.4 µM): 0.669; relative viability (HARA; first compound 1.265 µM): 0.738; relative viability (HARA; first compound 4 µM): 0.591; relative viability (COR-L23; first compound 0.04 µM): 0.715; relative viability (COR-L23; first compound 0.1265 µM): 0.666; relative viability (COR-L23; first compound 0.4 µM): 0.835; relative viability (COR-L23; first compound 1.265 µM): 0.646; relative viability (COR-L23; first compound 4 µM): 0.588; relative viability (NCI-H3122; first compound 0.04 µM): 0.0962; relative viability (NCI-H3122; first compound 0.1265 µM): 0.0894; relative viability (NCI-H3122; first compound 0.4 µM): 0.0775; relative viability (NCI-H3122; first compound 1.265 µM): 0.0975; relative viability (NCI-H3122; first compound 4 µM): 0.0766; relative viability (LK-2; first compound 0.04 µM): 0.185; relative viability (LK-2; first compound 0.1265 µM): 0.217; relative viability (LK-2; first compound 0.4 µM): 0.188; relative viability (LK-2; first compound 1.265 µM): 0.202; relative viability (LK-2; first compound 4 µM): 0.182; relative viability (NCI-H727; first compound 0.04 µM): 0.339; relative viability (NCI-H727; first compound 0.1265 µM): 0.289; relative viability (NCI-H727; first compound 0.4 µM): 0.329; relative viability (NCI-H727; first compound 1.265 µM): 0.635; relative viability (NCI-H727; first compound 4 µM): 0.392
